Data on four compounds can be found in publication PMC12388904, “Hypoglycemic Effects of Silphium perfoliatum L. In Vitro and In Vivo and Its Active Composition Identification by UPLC-Triple-TOF-MS/MS” (Pharmaceuticals, 2025).

One experiment has as its target maltase. The experiment in a line: In vitro maltase inhibition (rat intestinal mucosa α-glucosidase, glucose assay kit). As to conditions: for IC50 on maltase: Figure 4C, same IC50 in mass units, in brackets; for IC50: read-out: IC50 against maltase, Figure 4.
A further experiment deals with sucrase (Rattus norvegicus, UniProt P23739). The experiment in a line: In vitro sucrase inhibition (rat intestinal mucosa α-glucosidase, glucose assay kit).
Experiment [1] has as its system diabetic mice. The experiment in a line: Maltose tolerance test, PBG detection in alloxan-induced diabetic mice. The format is in vivo. As to conditions: maltose 3 g/kg oral, compared to model group. Here is the method: (§1) PBG detection in diabetic mice adhered to the protocol previously established by our group. After 12-h fasting, hyperglycemia was induced by tail vein injection of alloxan at a dose of 60 mg/kg. Fasting blood glucose was measured 72 h post-induction. Mice with blood glucose levels of 180–360 mg/dL were considered diabetic and randomized into five groups (n = 8/group): Model (sucrose 3 g/kg); […] SP-10 L (sucrose 3 g/kg + SP-10 5 mg/kg); SP-10 M (sucrose 3 g/kg + SP-10 10 mg/kg) and SP-10 H (sucrose 3 g/kg + SP-10 20 mg/kg). Blood glucose was measured pre-gavage and at 30, 60, and 120 min post-gavage. Data was recorded and analyzed for PBG and AUC using Graphpad Prism 9.5.1. Maltose and starch experiments used identical designs.

For experiment [2], the system named is diabetic mice. In words: Starch tolerance test, PBG detection in alloxan-induced diabetic mice. The format is in vivo. The conditions noted are these: starch 3 g/kg oral, acarbose 6 mg/kg, compared to model group. Here is the method:
as §1

Experiment [3] relates to diabetic mice. The experiment in a line: Sucrose tolerance test, PBG detection in alloxan-induced diabetic mice. It is filed as in vivo. The conditions noted are these: sucrose 3 g/kg oral, acarbose 6 mg/kg. Here is the method: as §1
Setting [4] is: maltose 1 mmol/L, 37 °C, 20 min.
The mark [5] stands for this setting: IC50 against sucrase, Figure 4, sucrose 50 mmol/L, 37 °C, 20 min.
[6] abbreviates: IC50 on sucrase, Figure 4D, same IC50 in mass units, in brackets.
Setting [7] is: SP-10 10 and 20 mg/kg, compared to model group.

SMILES strings stand for the structures. Values after ≈ are worked out from the molar mass of the structure shown.

sucrase, sequence (P23739 whole entry): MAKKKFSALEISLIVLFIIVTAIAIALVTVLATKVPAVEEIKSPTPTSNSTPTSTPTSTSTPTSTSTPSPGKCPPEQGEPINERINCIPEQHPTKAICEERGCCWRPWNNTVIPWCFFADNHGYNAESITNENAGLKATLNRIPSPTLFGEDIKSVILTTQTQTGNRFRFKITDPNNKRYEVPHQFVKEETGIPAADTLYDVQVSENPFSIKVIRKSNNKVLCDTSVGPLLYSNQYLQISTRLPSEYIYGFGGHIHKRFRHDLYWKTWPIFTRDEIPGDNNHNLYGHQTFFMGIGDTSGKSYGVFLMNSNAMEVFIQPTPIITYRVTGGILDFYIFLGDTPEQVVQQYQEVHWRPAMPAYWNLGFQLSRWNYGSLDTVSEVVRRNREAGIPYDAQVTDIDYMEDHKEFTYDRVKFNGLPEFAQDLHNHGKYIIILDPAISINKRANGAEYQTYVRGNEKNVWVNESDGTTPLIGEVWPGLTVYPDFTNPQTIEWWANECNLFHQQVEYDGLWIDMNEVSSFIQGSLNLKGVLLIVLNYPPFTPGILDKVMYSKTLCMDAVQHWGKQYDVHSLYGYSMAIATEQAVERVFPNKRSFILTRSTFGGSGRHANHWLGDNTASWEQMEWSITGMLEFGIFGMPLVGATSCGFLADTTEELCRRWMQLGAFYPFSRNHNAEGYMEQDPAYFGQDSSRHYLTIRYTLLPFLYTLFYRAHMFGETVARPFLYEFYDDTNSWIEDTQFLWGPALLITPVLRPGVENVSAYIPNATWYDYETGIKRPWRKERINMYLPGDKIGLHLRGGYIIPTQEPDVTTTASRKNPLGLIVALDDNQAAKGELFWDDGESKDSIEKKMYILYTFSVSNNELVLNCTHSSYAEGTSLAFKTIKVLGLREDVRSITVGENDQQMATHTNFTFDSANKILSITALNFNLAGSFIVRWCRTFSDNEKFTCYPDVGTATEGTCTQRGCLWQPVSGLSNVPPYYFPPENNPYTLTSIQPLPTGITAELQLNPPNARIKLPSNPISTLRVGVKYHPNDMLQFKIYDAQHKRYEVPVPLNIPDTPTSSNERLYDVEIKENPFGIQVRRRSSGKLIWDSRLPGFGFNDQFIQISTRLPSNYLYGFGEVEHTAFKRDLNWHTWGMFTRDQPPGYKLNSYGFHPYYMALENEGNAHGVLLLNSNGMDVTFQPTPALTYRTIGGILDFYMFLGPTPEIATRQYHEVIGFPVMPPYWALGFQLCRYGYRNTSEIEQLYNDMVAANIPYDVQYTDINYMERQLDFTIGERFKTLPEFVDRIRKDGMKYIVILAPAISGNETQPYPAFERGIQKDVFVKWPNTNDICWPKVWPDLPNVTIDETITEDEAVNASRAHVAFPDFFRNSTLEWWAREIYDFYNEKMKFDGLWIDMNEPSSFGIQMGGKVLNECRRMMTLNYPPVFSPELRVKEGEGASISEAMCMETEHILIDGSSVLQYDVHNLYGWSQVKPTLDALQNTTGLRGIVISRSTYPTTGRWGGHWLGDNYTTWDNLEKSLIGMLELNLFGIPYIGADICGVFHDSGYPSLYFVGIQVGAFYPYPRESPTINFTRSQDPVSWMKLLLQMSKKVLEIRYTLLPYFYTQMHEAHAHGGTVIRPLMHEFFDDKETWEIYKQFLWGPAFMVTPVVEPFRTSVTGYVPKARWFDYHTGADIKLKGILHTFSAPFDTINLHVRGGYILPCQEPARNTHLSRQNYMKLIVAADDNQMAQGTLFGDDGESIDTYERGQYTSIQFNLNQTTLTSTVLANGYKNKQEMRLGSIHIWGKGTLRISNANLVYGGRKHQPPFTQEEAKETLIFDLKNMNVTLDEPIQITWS
From the text for maltase: (§2) The α-Glucosidase preparation and inhibitory activity evaluation followed established laboratory protocols [41]. After overnight fasting, rats were humanely euthanized according to approved ethical guidelines. Small intestinal segments were immediately excised and placed on ice to preserve enzymatic activity. Following longitudinal dissection, the luminal surface was rinsed three times with pre-chilled PBS (0.1 M, pH 7.4), and mucosa was scraped using sterile slides. The mucosal tissue was subsequently dissolved in cold PBS (1:5 m/v), centrifuged (8000 rpm, 4 °C, 4 min), and the supernatant was snap-frozen in liquid nitrogen for storage at −80 °C.
(§3) After shaking, 50 μL of maltase (11.32 U/mL) or sucrase (15.26 U/mL) was added and incubated at 37 °C for 20 min with oscillation. Reactions were terminated by heating at 95 °C for 15 min. Glucose production was quantified using a glucose assay kit, and IC50 values were calculated with GraphPad Prism 9.5.1.
From the text for sucrase: as §2, §3

On to `O=C(C=Cc1ccc(O)c(O)c1)OC1C(O)CC(O)(C(=O)O)CC1O` (centres unmarked) [CCGA, cryptochlorogenic acid], for which the IC50 on maltase on maltase came out at 38.47 µg/mL (≈ 109 µM). Further, the IC50 on maltase (setting [4]) is 109 µM; against sucrase (setting [5]), 110 µM; against sucrase (setting [6]), 110 µM.
The compound `O=C(/C=C/c1ccc(O)c(O)c1)O[C@@H]1C[C@](O)(C(=O)O)C[C@@H](O)[C@H]1O` [CGA, chlorogenic acid] had an IC50 on maltase against maltase of 40.60 µg/mL (≈ 115 µM). Further, the IC50 at maltase (setting [4]) is 115 µM; against sucrase (setting [5]), 126 µM; on sucrase (setting [6]) it was 126 µM. Moreover, on sucrase, the “IC50 against sucrase, fold higher relative to acarbose” value is given as 210 fold.
Consider `O=C(C=Cc1ccc(O)c(O)c1)OC1CC(O)(C(=O)O)CC(O)C1O` (centres unmarked) [NCGA, neochlorogenic acid], for which, at maltase, the IC50 on maltase worked out at 31.07 µg/mL (≈ 87.7 µM). For the same compound, the IC50 on maltase (setting [4]) was 87.7 µM; at sucrase (setting [5]), 130 µM; at sucrase (setting [6]), 129 µM. The “IC50 against sucrase, fold higher relative to acarbose” value against sucrase was found to be 215 fold.
Regarding `C[C@H]1O[C@H](O[C@H]2[C@H](O)[C@@H](O)[C@@H](O[C@H]3[C@H](O)[C@@H](O)C(O)O[C@@H]3CO)O[C@@H]2CO)[C@H](O)[C@@H](O)[C@@H]1N[C@H]1C=C(CO)[C@@H](O)[C@H](O)[C@H]1O` (some centres unmarked) [acarbose, Acarbose], the “IC50 for maltase inhibition” value at maltase (Figure 1, maltose 1 mmol/L, 37 °C, 20 min) came out at 0.168 µg/mL. For the same compound, the concentration for half-maximal inhibition (IC50) at maltase (setting [4]) amounted to 0.26 µM. In the experiment on diabetic mice [1] (all three SP-10 groups (5, 10, 20 mg/kg), acarbose 6 mg/kg), the “PBG levels at 30 and 60 min” value is “lower PBG levels at 30 and 60 min, although these differences were not statistically significant”. Further, the “PBG levels at 120 min” value in the experiment with diabetic mice [1] (all treatment groups (SP-10 5, 10, 20 mg/kg, acarbose 6 mg/kg)) is “statistically significant reductions”. Also, the “PBG levels at all measured time points” value in the experiment with diabetic mice [2] (SP-10 H 20 mg/kg) is on record as “significantly reduced”. Moreover, the “AUC levels (0–120 min)” value in the experiment with diabetic mice [2] (SP-10 M 10 mg/kg and SP-10 H 20 mg/kg) is “markedly decreased”. For the same compound, in the experiment on diabetic mice [3] (setting [7]), the “Blood glucose AUC (0–120 min)” value was “significantly lower” and the “PBG levels at 30 min” value is reported as “significant attenuation”. Further, in the experiment with diabetic mice [3] (SP-10 H 20 mg/kg), the “Glycemic levels by 120 min” value is “restored glycemic levels to preprandial values”.
